Test results: US11780901B2, “Analogues of parathyroid hormone (1-34) that function as agonists of the parathyroid hormone receptor-1 and display modified activity profiles” (Wisconsin Alumni Research Foundation, priority 2013, dated 2023)
Where two headings read alike, the source gives them in different places. Starred links: 1 amine or outer side, 2 acyl side, 3 side chain; linkers in the order of their positions; H or OH if unused. Non-standard residues stand in square brackets, D forms with d. Residues, ends and D or L forms follow the SMILES beside them. *: point of attachment. X4 = O=C(O)CC[C@@H](CN[*:1])C(=O)[*:2]; X6 = O=C(O)CC[C@H](CN[*:1])C(=O)[*:2]; X11 = NC[C@H](CO)C(=O)*

Legend:
PTHR2 = PTHR2 (Homo sapiens, UniProt P49190); test: PTHR2 activation, cAMP production (GloSensor) in HEK293 cells; assay type: cell-based; parameters: expressed in transfected cells; key to PTHR2 Activation: Derivative EC50/PTH EC50: *** denotes poor tolerance of β amino acid for PTHR2 activation; conditions: for EC50: HEK-293 cells, GloSensor cAMP, read-out: EC50 (nM) of PTHR2 Activation; for PTHR2 Activation: Derivative EC50/PTH EC50: normalized to EC50 of PTH(1-34)-NH2 ([…] printed), cAMP production
PTHR2, sequence (P49190 25-550): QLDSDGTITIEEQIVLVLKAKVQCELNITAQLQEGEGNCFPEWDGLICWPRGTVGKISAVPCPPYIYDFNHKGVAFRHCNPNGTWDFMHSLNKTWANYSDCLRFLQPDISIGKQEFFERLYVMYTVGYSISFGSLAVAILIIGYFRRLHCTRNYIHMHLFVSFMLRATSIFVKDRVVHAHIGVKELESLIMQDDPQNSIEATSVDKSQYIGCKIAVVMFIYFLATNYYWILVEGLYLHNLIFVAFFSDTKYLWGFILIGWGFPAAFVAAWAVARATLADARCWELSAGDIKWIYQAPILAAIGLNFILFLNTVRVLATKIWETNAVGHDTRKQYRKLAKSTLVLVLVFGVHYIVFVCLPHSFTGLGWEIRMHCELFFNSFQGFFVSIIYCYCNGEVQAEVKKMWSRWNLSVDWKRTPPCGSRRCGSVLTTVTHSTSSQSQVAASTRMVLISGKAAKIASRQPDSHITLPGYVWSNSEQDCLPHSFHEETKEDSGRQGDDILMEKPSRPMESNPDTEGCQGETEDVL
Excerpt: The assays employ HEK-293 cells that have been engineered to express the appropriate receptor. GloSensor-based detection of cAMP provides a read-out of receptor activation. […] (Carter, P. H. et al. Actions of the Small Molecule Ligands SW106 and AH-3960 on the Type-1 Parathyroid Hormone Receptor. Molecular Endocrinology 29, 307-321 (2015).)
FIGS. 10A and 10B depict dose-response curves of PTHR1 activation (FIG. 10A) and PTHR2 activation (FIG. 10B) in HEK293 cells stably expressing PTHR1 or PTHR2. For PTHR1 activation and all the binding data, data represent mean±s.e.m from three independent measurements; For PTHR2 activation, data represent mean±s.e.m from four independent measurements. Curves were fit to the data using a four-parameter sigmoidal dose-response equation.

PTHR1 = molecular target: T1, PTHR1 (Homo sapiens, UniProt Q03431); test: PTHR1 activation, cAMP production (GloSensor) in HEK293 cells; assay type: cell-based; parameters: expressed in transfected cells; conditions: for PTHR1 Activation: Derivative EC50/PTH EC50: normalized to EC50 of PTH(1-34)-NH2 ([…]), cAMP production
T1 sequence (Q03431 27-593): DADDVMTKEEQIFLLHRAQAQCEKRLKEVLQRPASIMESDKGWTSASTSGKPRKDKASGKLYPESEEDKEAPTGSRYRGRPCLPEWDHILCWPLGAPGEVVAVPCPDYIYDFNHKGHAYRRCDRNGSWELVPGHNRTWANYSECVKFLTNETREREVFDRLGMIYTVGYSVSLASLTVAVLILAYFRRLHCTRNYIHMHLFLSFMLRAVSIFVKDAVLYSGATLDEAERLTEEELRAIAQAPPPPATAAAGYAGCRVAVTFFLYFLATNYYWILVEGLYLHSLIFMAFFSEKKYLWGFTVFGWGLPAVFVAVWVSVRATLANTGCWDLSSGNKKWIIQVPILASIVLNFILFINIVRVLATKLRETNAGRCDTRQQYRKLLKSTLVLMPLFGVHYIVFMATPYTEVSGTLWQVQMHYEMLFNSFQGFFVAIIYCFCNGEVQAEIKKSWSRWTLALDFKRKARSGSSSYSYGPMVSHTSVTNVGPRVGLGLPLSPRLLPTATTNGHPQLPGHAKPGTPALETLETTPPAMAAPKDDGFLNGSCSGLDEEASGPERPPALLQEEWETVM
Excerpt: The assays employ HEK-293 cells that have been engineered to express the appropriate receptor. GloSensor-based detection of cAMP provides a read-out of receptor activation.
For PTHR1 activation and all the binding data, data represent mean±s.e.m from three independent measurements; For PTHR2 activation, data represent mean±s.e.m from four independent measurements. Curves were fit to the data using a four-parameter sigmoidal dose-response equation.
For cAMP dose-response assays, monolayers of confluent HEK 293 cells were pre-incubated with buffer containing d-luciferin (0.5 mM) in 96 well plates at room temperature until a stable baseline level of luminescence was established (30 min). Varying concentrations of agonist were then added, and the time course of luminescence response was recorded using a Perkin Elmer plate reader following α/β-peptide addition.

[1] = HEK-293 cells, GloSensor cAMP, read-out: EC50 (nM) of PTHR1 Activation
[2] = Table 8, hPTHR1, read-out: PTHR1 EC50

SMILES	EC50 (PTHR1; [1])	PTHR1 Activation: Derivative EC50/PTH EC50 (PTHR1)	EC50 (PTHR1; [2])	EC50 (PTHR2)	PTHR2 Activation: Derivative EC50/PTH EC50 (PTHR2)
CC[C@H](C)[C@H](NC(=O)[C@H](CCC(=O)O)CNC(=O)[C@H](CO)NC(=O)[C@@H](NC(=O)[C@@H](N)CO)C(C)C)C(=O)N[C@@H](CCC(N)=O)C(=O)N[C@@H](CC(C)C)C(=O)N[C@@H](CCSC)C(=O)N[C@@H](Cc1c[nH]cn1)C(=O)N[C@@H](CC(N)=O)C(=O)N[C@@H](CC(C)C)C(=O)NCC(=O)N[C@@H](CCCCN)C(=O)N[C@@H](Cc1c[nH]cn1)C(=O)N[C@@H](CC(C)C)C(=O)N[C@@H](CC(N)=O)C(=O)N[C@@H](CO)C(=O)N[C@@H](CCSC)C(=O)N[C@@H](CCC(=O)O)C(=O)N[C@@H](CCCNC(=N)N)C(=O)N[C@H](C(=O)N[C@@H](CCC(=O)O)C(=O)N[C@@H](Cc1c[nH]c2ccccc12)C(=O)N[C@@H](CC(C)C)C(=O)N[C@@H](CCCNC(=N)N)C(=O)N[C@@H](CCCCN)C(=O)N[C@@H](CCCCN)C(=O)N[C@@H](CC(C)C)C(=O)N[C@@H](CCC(N)=O)C(=O)N[C@@H](CC(=O)O)C(=O)N[C@H](C(=O)N[C@@H](Cc1c[nH]cn1)C(=O)N[C@@H](CC(N)=O)C(=O)N[C@@H](Cc1ccccc1)C(N)=O)C(C)C)C(C)C [SEQ. ID. NO: 25] (H-SVS[X6]IQLMHNLGKHLNSMERVEWLRKKLQDVHNF-NH2; N-terminus assumed)	22.9 ± 1.89 nM	60.26	–	> 1000 nM	***
CC[C@H](C)[C@@H](CC(=O)N[C@@H](CCC(N)=O)C(=O)N[C@@H](CC(C)C)C(=O)N[C@@H](CCSC)C(=O)N[C@@H](Cc1cnc[nH]1)C(=O)N[C@@H](CC(N)=O)C(=O)N[C@@H](CC(C)C)C(=O)NCC(=O)N[C@@H](CCCCN)C(=O)N[C@@H](Cc1cnc[nH]1)C(=O)N[C@@H](CC(C)C)C(=O)N[C@@H](CC(N)=O)C(=O)N[C@@H](CO)C(=O)N[C@@H](CCSC)C(=O)N[C@@H](CCC(=O)O)C(=O)N[C@@H](CCCNC(=N)N)C(=O)N[C@H](C(=O)N[C@@H](CCC(=O)O)C(=O)N[C@@H](Cc1c[nH]c2ccccc12)C(=O)N[C@@H](CC(C)C)C(=O)N[C@@H](CCCNC(=N)N)C(=O)N[C@@H](CCCCN)C(=O)N[C@@H](CCCCN)C(=O)N[C@@H](CC(C)C)C(=O)N[C@@H](CCC(N)=O)C(=O)N[C@@H](CC(=O)O)C(=O)N[C@H](C(=O)N[C@@H](Cc1cnc[nH]1)C(=O)N[C@@H](CC(N)=O)C(=O)N[C@@H](Cc1ccccc1)C(N)=O)C(C)C)C(C)C)NC(=O)[C@H](CCC(=O)O)NC(=O)[C@H](CO)NC(=O)[C@@H](NC(=O)[C@@H](N)CO)C(C)C [SEQ. ID. NO: 42]	3.4 ± 1.22 nM	–	–	–	–
CC[C@H](C)[C@H](NC(=O)C[C@H](CCC(=O)O)NC(=O)[C@H](CO)NC(=O)[C@@H](NC(=O)[C@@H](N)CO)C(C)C)C(=O)N[C@@H](CCC(N)=O)C(=O)N[C@@H](CC(C)C)C(=O)N[C@@H](CCSC)C(=O)N[C@@H](Cc1c[nH]cn1)C(=O)N[C@@H](CC(N)=O)C(=O)N[C@@H](CC(C)C)C(=O)NCC(=O)N[C@@H](CCCCN)C(=O)N[C@@H](Cc1c[nH]cn1)C(=O)N[C@@H](CC(C)C)C(=O)N[C@@H](CC(N)=O)C(=O)N[C@@H](CO)C(=O)N[C@@H](CCSC)C(=O)N[C@@H](CCC(=O)O)C(=O)N[C@@H](CCCNC(=N)N)C(=O)N[C@H](C(=O)N[C@@H](CCC(=O)O)C(=O)N[C@@H](Cc1c[nH]c2ccccc12)C(=O)N[C@@H](CC(C)C)C(=O)N[C@@H](CCCNC(=N)N)C(=O)N[C@@H](CCCCN)C(=O)N[C@@H](CCCCN)C(=O)N[C@@H](CC(C)C)C(=O)N[C@@H](CCC(N)=O)C(=O)N[C@@H](CC(=O)O)C(=O)N[C@H](C(=O)N[C@@H](Cc1c[nH]cn1)C(=O)N[C@@H](CC(N)=O)C(=O)N[C@@H](Cc1ccccc1)C(N)=O)C(C)C)C(C)C [SEQ. ID. NO: 41]	–	–	–	60.1 ± 9.82 nM	–

The next lines start with results.

EC50 (PTHR1; [1])	PTHR1 Activation: Derivative EC50/PTH EC50 (PTHR1)	EC50 (PTHR1; [2])	SMILES	EC50 (PTHR2)	PTHR2 Activation: Derivative EC50/PTH EC50 (PTHR2)
–	–	1.55 ± 0.3 nM	CC[C@H](C)[C@H](NC(=O)[C@H](CCC(=O)O)NC(=O)[C@H](CO)NC(=O)[C@@H](NC(=O)[C@H](CN)CO)C(C)C)C(=O)N[C@@H](CCC(N)=O)C(=O)N[C@@H](CC(C)C)C(=O)N[C@@H](CCSC)C(=O)N[C@@H](Cc1c[nH]cn1)C(=O)N[C@@H](CC(N)=O)C(=O)N[C@@H](CC(C)C)C(=O)NCC(=O)N[C@@H](CCCCN)C(=O)N[C@@H](Cc1c[nH]cn1)C(=O)N[C@@H](CC(C)C)C(=O)N[C@@H](CC(N)=O)C(=O)N[C@@H](CO)C(=O)N[C@@H](CCSC)C(=O)N[C@@H](CCC(=O)O)C(=O)N[C@@H](CCCNC(=N)N)C(=O)N[C@H](C(=O)N[C@@H](CCC(=O)O)C(=O)N[C@@H](Cc1c[nH]c2ccccc12)C(=O)N[C@@H](CC(C)C)C(=O)N[C@@H](CCCNC(=N)N)C(=O)N[C@@H](CCCCN)C(=O)N[C@@H](CCCCN)C(=O)N[C@@H](CC(C)C)C(=O)N[C@@H](CCC(N)=O)C(=O)N[C@@H](CC(=O)O)C(=O)N[C@H](C(=O)N[C@@H](Cc1c[nH]cn1)C(=O)N[C@@H](CC(N)=O)C(=O)N[C@@H](Cc1ccccc1)C(N)=O)C(C)C)C(C)C [SEQ. ID. NO: 30] (X11-VSEIQLMHNLGKHLNSMERVEWLRKKLQDVHNF-NH2)	–	–
6.97 ± 1 nM	18.34	4.72 ± 1.04 nM	CC[C@H](C)[C@H](NC(=O)[C@H](CCC(=O)O)NC(=O)[C@H](CO)NC(=O)[C@H](CNC(=O)[C@@H](N)CO)C(C)C)C(=O)N[C@@H](CCC(N)=O)C(=O)N[C@@H](CC(C)C)C(=O)N[C@@H](CCSC)C(=O)N[C@@H](Cc1c[nH]cn1)C(=O)N[C@@H](CC(N)=O)C(=O)N[C@@H](CC(C)C)C(=O)NCC(=O)N[C@@H](CCCCN)C(=O)N[C@@H](Cc1c[nH]cn1)C(=O)N[C@@H](CC(C)C)C(=O)N[C@@H](CC(N)=O)C(=O)N[C@@H](CO)C(=O)N[C@@H](CCSC)C(=O)N[C@@H](CCC(=O)O)C(=O)N[C@@H](CCCNC(=N)N)C(=O)N[C@H](C(=O)N[C@@H](CCC(=O)O)C(=O)N[C@@H](Cc1c[nH]c2ccccc12)C(=O)N[C@@H](CC(C)C)C(=O)N[C@@H](CCCNC(=N)N)C(=O)N[C@@H](CCCCN)C(=O)N[C@@H](CCCCN)C(=O)N[C@@H](CC(C)C)C(=O)N[C@@H](CCC(N)=O)C(=O)N[C@@H](CC(=O)O)C(=O)N[C@H](C(=O)N[C@@H](Cc1c[nH]cn1)C(=O)N[C@@H](CC(N)=O)C(=O)N[C@@H](Cc1ccccc1)C(N)=O)C(C)C)C(C)C [SEQ. ID. NO: 31]	4.72 ± 1.04 nM	5.43
10.8 ± 0.47 nM	28.42	> 100 nM	CC[C@H](C)[C@H](NC(=O)[C@@H](CCC(=O)O)CNC(=O)[C@H](CO)NC(=O)[C@@H](NC(=O)[C@@H](N)CO)C(C)C)C(=O)N[C@@H](CCC(N)=O)C(=O)N[C@@H](CC(C)C)C(=O)N[C@@H](CCSC)C(=O)N[C@@H](Cc1c[nH]cn1)C(=O)N[C@@H](CC(N)=O)C(=O)N[C@@H](CC(C)C)C(=O)NCC(=O)N[C@@H](CCCCN)C(=O)N[C@@H](Cc1c[nH]cn1)C(=O)N[C@@H](CC(C)C)C(=O)N[C@@H](CC(N)=O)C(=O)N[C@@H](CO)C(=O)N[C@@H](CCSC)C(=O)N[C@@H](CCC(=O)O)C(=O)N[C@@H](CCCNC(=N)N)C(=O)N[C@H](C(=O)N[C@@H](CCC(=O)O)C(=O)N[C@@H](Cc1c[nH]c2ccccc12)C(=O)N[C@@H](CC(C)C)C(=O)N[C@@H](CCCNC(=N)N)C(=O)N[C@@H](CCCCN)C(=O)N[C@@H](CCCCN)C(=O)N[C@@H](CC(C)C)C(=O)N[C@@H](CCC(N)=O)C(=O)N[C@@H](CC(=O)O)C(=O)N[C@H](C(=O)N[C@@H](Cc1c[nH]cn1)C(=O)N[C@@H](CC(N)=O)C(=O)N[C@@H](Cc1ccccc1)C(N)=O)C(C)C)C(C)C [SEQ. ID. NO: 33] (H-SVS[X4]IQLMHNLGKHLNSMERVEWLRKKLQDVHNF-NH2; N-terminus assumed)	> 100 nM	***
